The source of these data is ChEMBL document CHEMBL5523762, “Discovery of Potent and Selective G9a Degraders for the Treatment of Pancreatic Cancer” (J Med Chem, 2024).

Experiment [1] has as its target T1, Histone-lysine N-methyltransferase EHMT2 (Homo sapiens) (UniProt Q96KQ7).
T1 sequence (whole entry): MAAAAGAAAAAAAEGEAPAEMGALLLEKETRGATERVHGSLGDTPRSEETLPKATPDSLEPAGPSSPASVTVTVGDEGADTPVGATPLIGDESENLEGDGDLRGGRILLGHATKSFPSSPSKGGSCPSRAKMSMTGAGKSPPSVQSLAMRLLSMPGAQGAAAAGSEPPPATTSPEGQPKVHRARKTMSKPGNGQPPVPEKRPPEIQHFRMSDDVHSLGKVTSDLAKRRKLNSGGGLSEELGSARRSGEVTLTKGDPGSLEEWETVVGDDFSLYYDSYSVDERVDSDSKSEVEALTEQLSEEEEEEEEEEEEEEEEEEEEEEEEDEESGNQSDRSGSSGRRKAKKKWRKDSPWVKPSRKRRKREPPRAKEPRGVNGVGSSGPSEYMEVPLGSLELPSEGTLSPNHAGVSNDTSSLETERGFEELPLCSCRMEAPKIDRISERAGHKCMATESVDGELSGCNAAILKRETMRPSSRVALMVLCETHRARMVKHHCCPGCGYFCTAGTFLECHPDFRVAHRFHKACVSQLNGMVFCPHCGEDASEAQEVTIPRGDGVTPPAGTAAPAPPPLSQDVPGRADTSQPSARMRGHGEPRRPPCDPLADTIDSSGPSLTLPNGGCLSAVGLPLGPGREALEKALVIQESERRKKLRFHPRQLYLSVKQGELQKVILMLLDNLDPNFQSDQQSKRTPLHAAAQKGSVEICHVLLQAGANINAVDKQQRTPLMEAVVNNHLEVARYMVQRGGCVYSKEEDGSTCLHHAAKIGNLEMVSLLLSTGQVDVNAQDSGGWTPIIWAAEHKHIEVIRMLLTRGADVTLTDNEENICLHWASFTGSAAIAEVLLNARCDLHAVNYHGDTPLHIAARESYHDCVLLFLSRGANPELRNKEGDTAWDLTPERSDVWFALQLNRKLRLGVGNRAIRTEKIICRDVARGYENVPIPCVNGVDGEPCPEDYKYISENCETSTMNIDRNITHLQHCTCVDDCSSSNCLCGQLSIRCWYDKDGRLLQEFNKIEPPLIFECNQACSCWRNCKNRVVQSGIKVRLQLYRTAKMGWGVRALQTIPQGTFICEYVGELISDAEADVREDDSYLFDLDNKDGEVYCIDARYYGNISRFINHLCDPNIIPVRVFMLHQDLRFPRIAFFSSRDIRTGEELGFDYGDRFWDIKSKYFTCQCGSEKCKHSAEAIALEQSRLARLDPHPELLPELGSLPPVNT
Nature of the experiment: Inhibition of N-terminal GST tagged human recombinant G9a (785 to 1210 residues) expressed in Escherichia coli using H3(1 to 21)K9me1 and SAM as substrates incubated for 1 hr by HTRF assay.

In experiment [2] the target is T2, Protein cereblon/Histone-lysine N-methyltransferase EHMT2 (Homo sapiens, UniProt Q96KQ7+Q96SW2). As to the kind of experiment: PROTAC activity at CRBN/G9a in human PANC-1 cells assessed as induction of G9a degradation at 1 uM by Western blot analysis. The experiment is classed as cell-based.
Experiment [3] has as its target T2, Protein cereblon/Histone-lysine N-methyltransferase EHMT2. As to the kind of experiment: PROTAC activity at CRBN/G9a in human PANC-1 cells assessed as induction of G9a degradation at 0.1 uM measured after 24 hrs by Western blot analysis. The format is cell-based. Background: In western blotting, separated proteins are transferred to a membrane and probed.
The target of experiment [4] is T1, Histone-lysine N-methyltransferase EHMT2 (Homo sapiens). As to the kind of experiment: Induction of G9a degradation in human PANC-1 cells assessed as reduction in G9a protein level at 10 uM by Western blot analysis. The format is cell-based.
Experiment [5] has the same target. Nature of the experiment: Induction of G9a degradation in human PANC-1 cells assessed as reduction in G9a protein level at 10 uM in presence of 1 uM UNC0638 by Western blot analysis. The experiment is classed as cell-based.
For experiment [6], the target named is T2, Protein cereblon/Histone-lysine N-methyltransferase EHMT2. Nature of the experiment: PROTAC activity at CRBN/G9a in human PANC-1 cells assessed as induction of G9a degradation at 0.1 to 1 uM measured after 24 hrs by Western blot analysis. The format is cell-based. The settings on record: dose 0.1-1 µM.
The target in experiment [7] is T1, Histone-lysine N-methyltransferase EHMT2 (Homo sapiens). Nature of the experiment: Induction of G9a degradation in human PANC-1 cells assessed as reduction in G9a protein level at 50 uM measured at 16 hrs by Western blot analysis. The experiment is classed as cell-based.

The source made the active and inactive calls. No cut-off for these calls is given here.

T2 sequence (Q96SW2 whole entry partner, one chain of several): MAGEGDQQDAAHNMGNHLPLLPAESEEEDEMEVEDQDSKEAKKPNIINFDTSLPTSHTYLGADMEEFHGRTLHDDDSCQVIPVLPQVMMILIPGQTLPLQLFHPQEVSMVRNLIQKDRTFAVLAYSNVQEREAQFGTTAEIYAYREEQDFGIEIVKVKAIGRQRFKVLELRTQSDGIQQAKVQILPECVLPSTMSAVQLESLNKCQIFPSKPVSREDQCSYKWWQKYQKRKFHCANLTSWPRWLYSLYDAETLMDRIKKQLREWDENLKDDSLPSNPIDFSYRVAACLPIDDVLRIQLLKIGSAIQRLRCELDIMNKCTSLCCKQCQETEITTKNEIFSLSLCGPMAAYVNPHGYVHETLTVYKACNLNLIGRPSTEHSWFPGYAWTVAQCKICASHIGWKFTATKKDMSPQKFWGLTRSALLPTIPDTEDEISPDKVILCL

Take `COc1cc2c(NC3CCN(CCCC(=O)NCCCCCCCCNc4ccc5c(c4)C(=O)N(C4CCC(=O)NC4=O)C5=O)CC3)nc(C3CCCCC3)nc2cc1OCCCN1CCCC1` (stereo not given): in experiment [1], the inhibition result is “Active”. On the same count and under the same terms, for `COc1cc2c(NC3CCN(CCCC(=O)NCCOCCOCCNc4cccc5c4C(=O)N(C4CCC(=O)NC4=O)C5=O)CC3)nc(C3CCCCC3)nc2cc1OCCCN1CCCC1` (stereo not given) the value was “Active”. For `COc1cc2c(NC3CCN(CCCC(=O)NCCCCCCCCNc4cccc5c4C(=O)N(C4CCC(=O)N(C)C4=O)C5=O)CC3)nc(C3CCCCC3)nc2cc1OCCCN1CCCC1` (stereo not given), in experiment [2], the outcome was inactive. In the case of `COc1cc2c(NC3CCN(CCCC(=O)NCCCCCCCNc4cccc5c4C(=O)N(C4CCC(=O)NC4=O)C5=O)CC3)nc(C3CCCCC3)nc2cc1OCCCN1CCCC1` (stereo not given), the inhibition entry in experiment [1] was “Active”. In addition, the result in experiment [3] was inactive. The like results for `COc1cc2c(NC3CCN(CCCC(=O)NCCCCCCCCCCNc4cccc5c4C(=O)N(C4CCC(=O)NC4=O)C5=O)CC3)nc(C3CCCCC3)nc2cc1OCCCN1CCCC1` (stereo not given) were, in that order, “Active” and “inactive”.

Consider `COc1cc2c(NC3CCN(CCCC(=O)NCCCCCCCCNc4cccc5c4C(=O)N(C4CCC(=O)NC4=O)C5=O)CC3)nc(C3CCCCC3)nc2cc1OCCCN1CCC(F)(F)CC1` (stereo not given), for which, in experiment [2], the outcome was inactive. `COc1cc2c(NC3CCN(CCCC(=O)NCCCCCCCCOc4cccc5c4C(=O)N(C4CCC(=O)NC4=O)C5=O)CC3)nc(C3CCCCC3)nc2cc1OCCCN1CCCC1` (stereo not given): in experiment [1], the inhibition entry is “Active”. Turning to `O=C1CCC(N2C(=O)c3ccccc3C2=O)C(=O)N1` (stereo not given), the result in experiment [4] and in experiment [5] was inactive. Regarding `COc1cc2c(NC3CCN(C(=O)CCC(=O)NCCCCCCCCNc4cccc5c4C(=O)N(C4CCC(=O)NC4=O)C5=O)CC3)nc(C3CCCCC3)nc2cc1OCCCN1CCCC1` (stereo not given), the outcome in experiment [6] was inactive. Take `N=C(NCCCCCCNC(=N)NC(=N)Nc1ccc(Cl)cc1)NC(=N)Nc1ccc(Cl)cc1`: in experiment [7], the result was Active. For the compound `COc1cc2c(NC3CCN(CCCC(=O)NCCCCCCCCCNc4cccc5c4C(=O)N(C4CCC(=O)NC4=O)C5=O)CC3)nc(C3CCCCC3)nc2cc1OCCCN1CCCC1` (stereo not given), the inhibition entry in experiment [1] is “Active”. Further, in experiment [3], the outcome was inactive.
